# Measured values published in ChEMBL document CHEMBL3885881, “DrugMatrix”.
# Species on record: Rattus norvegicus
# Assay: DrugMatrix - Regimen: Daily Repeat
# Type: toxicity, organism-based, Sprague-Dawley
# Parameters: regimen Daily Repeat, gender Male, age 6-8 weeks
# Settings: in vivo, po, route oral GAVAGE, vehicle .5 % CMC; for BASOPHIL / EOSINOPHIL / ERYTHROCYTE COUNT / HEMATOCRIT / HEMOGLOBIN / LEUKOCYTE COUNT / LYMPHOCYTE / MEAN CORPUSCULAR HEMOGLOBIN / MEAN CORPUSCULAR HEMOGLOBIN CONCENTRATION / MEAN CORPUSCULAR VOLUME / MONOCYTE / NEUTROPHIL / PLATELET COUNT: tissue Blood; for ALANINE AMINOTRANSFERASE / ALBUMIN / ALKALINE PHOSPHATASE / ASPARTATE AMINOTRANSFERASE / BLOOD UREA NITROGEN / CHLORIDE / CHOLESTEROL / CREATINE PHOSPHOKINASE / CREATININE / GLUCOSE / PHOSPHORUS / POTASSIUM / SODIUM / TOTAL PROTEIN: tissue Plasma
# [1] = 0 mg/kg, 72 h, dose level Control, time 3 day
# [2] = 0 mg/kg, 120 h, dose level Control, time 5 day
# [3] = 3 mg/kg, 72 h, dose level Low, time 3 day
# [4] = 3 mg/kg, 120 h, dose level Low, time 5 day
# [5] = 37 mg/kg, 72 h, dose level High, time 3 day
# [6] = 37 mg/kg, 120 h, dose level High, time 5 day
smiles,measurement,setting,value
CN1CCC(=C2c3ccccc3C=Cc3ccccc32)CC1 [CYPROHEPTADINE],BASOPHIL,[1],0%
same,EOSINOPHIL,[1],0.33%
same,ERYTHROCYTE COUNT,[1],6.03 x10E6/uL
same,HEMATOCRIT,[1],38.8%
same,HEMOGLOBIN,[1],14.26 G/DL
same,LEUKOCYTE COUNT,[1],10.64 x10E3/uL
same,LYMPHOCYTE,[1],83.33%
same,MEAN CORPUSCULAR HEMOGLOBIN,[1],23.64 pg
same,MEAN CORPUSCULAR HEMOGLOBIN CONCENTRATION,[1],36.74 G/DL
same,MEAN CORPUSCULAR VOLUME,[1],64.32 fL
same,MONOCYTE,[1],3.33%
same,NEUTROPHIL,[1],13%
same,PLATELET COUNT,[1],1264.4 x10E3/uL
same,ALANINE AMINOTRANSFERASE,[1],38.83 u/L
same,ALBUMIN,[1],3.55 G/DL
same,ALKALINE PHOSPHATASE,[1],368.33 u/L
same,ASPARTATE AMINOTRANSFERASE,[1],66.17 u/L
same,BLOOD UREA NITROGEN,[1],15.67 mg/dL
same,CHLORIDE,[1],104.33 MEQ/L
same,CHOLESTEROL,[1],76.5 mg/dL
same,CREATINE PHOSPHOKINASE,[1],166.83 u/L
same,CREATININE,[1],0.52 mg/dL
same,GLUCOSE,[1],173.17 mg/dL
same,PHOSPHORUS,[1],11.68 mg/dL
same,POTASSIUM,[1],6.43 MEQ/L
same,SODIUM,[1],149.5 MEQ/L
same,TOTAL PROTEIN,[1],5.93 G/DL
same,BASOPHIL,[2],0%
same,EOSINOPHIL,[2],0%
same,ERYTHROCYTE COUNT,[2],5.88 x10E6/uL
same,HEMATOCRIT,[2],37.87%
same,HEMOGLOBIN,[2],14.48 G/DL
same,LEUKOCYTE COUNT,[2],12.43 x10E3/uL
same,LYMPHOCYTE,[2],84.17%
same,MEAN CORPUSCULAR HEMOGLOBIN,[2],24.65 pg
same,MEAN CORPUSCULAR HEMOGLOBIN CONCENTRATION,[2],38.25 G/DL
same,MEAN CORPUSCULAR VOLUME,[2],64.47 fL
same,MONOCYTE,[2],4.33%
same,NEUTROPHIL,[2],11.5%
same,PLATELET COUNT,[2],1182.33 x10E3/uL
same,ALANINE AMINOTRANSFERASE,[2],38.67 u/L
same,ALBUMIN,[2],3.55 G/DL
same,ALKALINE PHOSPHATASE,[2],342.5 u/L
same,ASPARTATE AMINOTRANSFERASE,[2],63.33 u/L
same,BLOOD UREA NITROGEN,[2],15.5 mg/dL
same,CHLORIDE,[2],104 MEQ/L
same,CHOLESTEROL,[2],75.5 mg/dL
same,CREATINE PHOSPHOKINASE,[2],142.5 u/L
same,CREATININE,[2],0.62 mg/dL
same,GLUCOSE,[2],165.17 mg/dL
same,PHOSPHORUS,[2],10.87 mg/dL
same,POTASSIUM,[2],6.85 MEQ/L
same,SODIUM,[2],150.17 MEQ/L
same,TOTAL PROTEIN,[2],5.93 G/DL
same,BASOPHIL,[3],0%
same,EOSINOPHIL,[3],0%
same,ERYTHROCYTE COUNT,[3],6.1 x10E6/uL
same,HEMATOCRIT,[3],40.23%
same,HEMOGLOBIN,[3],15.13 G/DL
same,LEUKOCYTE COUNT,[3],11.03 x10E3/uL
same,LYMPHOCYTE,[3],89.33%
same,MEAN CORPUSCULAR HEMOGLOBIN,[3],24.8 pg
same,MEAN CORPUSCULAR HEMOGLOBIN CONCENTRATION,[3],37.63 G/DL
same,MEAN CORPUSCULAR VOLUME,[3],65.97 fL
same,MONOCYTE,[3],1%
same,NEUTROPHIL,[3],9.67%
same,PLATELET COUNT,[3],1191.33 x10E3/uL
same,ALANINE AMINOTRANSFERASE,[3],32.67 u/L
same,ALBUMIN,[3],3.6 G/DL
same,ALKALINE PHOSPHATASE,[3],369 u/L
same,ASPARTATE AMINOTRANSFERASE,[3],58 u/L
same,BLOOD UREA NITROGEN,[3],13.33 mg/dL
same,CHLORIDE,[3],105.67 MEQ/L
same,CHOLESTEROL,[3],75.67 mg/dL
same,CREATINE PHOSPHOKINASE,[3],139.67 u/L
same,CREATININE,[3],0.47 mg/dL
same,GLUCOSE,[3],159 mg/dL
same,PHOSPHORUS,[3],11.23 mg/dL
same,POTASSIUM,[3],6.9 MEQ/L
same,SODIUM,[3],151.33 MEQ/L
same,TOTAL PROTEIN,[3],5.8 G/DL
same,BASOPHIL,[4],0%
same,EOSINOPHIL,[4],0.67%
same,ERYTHROCYTE COUNT,[4],6.35 x10E6/uL
same,HEMATOCRIT,[4],39.23%
same,HEMOGLOBIN,[4],14.37 G/DL
same,LEUKOCYTE COUNT,[4],13.2 x10E3/uL
same,LYMPHOCYTE,[4],89.33%
same,MEAN CORPUSCULAR HEMOGLOBIN,[4],22.67 pg
same,MEAN CORPUSCULAR HEMOGLOBIN CONCENTRATION,[4],36.63 G/DL
same,MEAN CORPUSCULAR VOLUME,[4],61.83 fL
same,MONOCYTE,[4],1%
same,NEUTROPHIL,[4],9%
same,PLATELET COUNT,[4],1248.67 x10E3/uL
same,ALANINE AMINOTRANSFERASE,[4],39.67 u/L
same,ALBUMIN,[4],3.4 G/DL
same,ALKALINE PHOSPHATASE,[4],503.67 u/L
same,ASPARTATE AMINOTRANSFERASE,[4],62.67 u/L
same,BLOOD UREA NITROGEN,[4],13.67 mg/dL
same,CHLORIDE,[4],103.33 MEQ/L
same,CHOLESTEROL,[4],70 mg/dL
same,CREATINE PHOSPHOKINASE,[4],134 u/L
same,CREATININE,[4],0.53 mg/dL
same,GLUCOSE,[4],189.33 mg/dL
same,PHOSPHORUS,[4],12.93 mg/dL
same,POTASSIUM,[4],6.83 MEQ/L
same,SODIUM,[4],147.67 MEQ/L
same,TOTAL PROTEIN,[4],5.63 G/DL
same,BASOPHIL,[5],0%
same,EOSINOPHIL,[5],0%
same,ERYTHROCYTE COUNT,[5],5.89 x10E6/uL
same,HEMATOCRIT,[5],38%
same,HEMOGLOBIN,[5],13.37 G/DL
same,LEUKOCYTE COUNT,[5],9.03 x10E3/uL
same,LYMPHOCYTE,[5],86%
same,MEAN CORPUSCULAR HEMOGLOBIN,[5],22.7 pg
same,MEAN CORPUSCULAR HEMOGLOBIN CONCENTRATION,[5],35.17 G/DL
same,MEAN CORPUSCULAR VOLUME,[5],64.53 fL
same,MONOCYTE,[5],3.33%
same,NEUTROPHIL,[5],10.67%
same,PLATELET COUNT,[5],1233.33 x10E3/uL
same,ALANINE AMINOTRANSFERASE,[5],33 u/L
same,ALBUMIN,[5],3.67 G/DL
same,ALKALINE PHOSPHATASE,[5],296.33 u/L
same,ASPARTATE AMINOTRANSFERASE,[5],50.33 u/L
same,BLOOD UREA NITROGEN,[5],15 mg/dL
same,CHLORIDE,[5],104.67 MEQ/L
same,CHOLESTEROL,[5],62.67 mg/dL
same,CREATINE PHOSPHOKINASE,[5],128 u/L
same,CREATININE,[5],0.5 mg/dL
same,GLUCOSE,[5],167.33 mg/dL
same,PHOSPHORUS,[5],12.37 mg/dL
same,POTASSIUM,[5],7.2 MEQ/L
same,SODIUM,[5],150.67 MEQ/L
same,TOTAL PROTEIN,[5],5.93 G/DL
same,BASOPHIL,[6],0%
same,EOSINOPHIL,[6],0.33%
same,ERYTHROCYTE COUNT,[6],5.95 x10E6/uL
same,HEMATOCRIT,[6],37.4%
same,HEMOGLOBIN,[6],13.8 G/DL
same,LEUKOCYTE COUNT,[6],11.57 x10E3/uL
same,LYMPHOCYTE,[6],87.33%
same,MEAN CORPUSCULAR HEMOGLOBIN,[6],23.23 pg
same,MEAN CORPUSCULAR HEMOGLOBIN CONCENTRATION,[6],36.93 G/DL
same,MEAN CORPUSCULAR VOLUME,[6],62.9 fL
same,MONOCYTE,[6],0%
same,NEUTROPHIL,[6],12.33%
same,PLATELET COUNT,[6],1286.67 x10E3/uL
same,ALANINE AMINOTRANSFERASE,[6],35 u/L
same,ALBUMIN,[6],3.4 G/DL
same,ALKALINE PHOSPHATASE,[6],311.67 u/L
same,ASPARTATE AMINOTRANSFERASE,[6],52 u/L
same,BLOOD UREA NITROGEN,[6],14 mg/dL
same,CHLORIDE,[6],102.33 MEQ/L
same,CHOLESTEROL,[6],50.67 mg/dL
same,CREATINE PHOSPHOKINASE,[6],124 u/L
same,CREATININE,[6],0.53 mg/dL
same,GLUCOSE,[6],159.67 mg/dL
same,PHOSPHORUS,[6],12.5 mg/dL
same,POTASSIUM,[6],6.77 MEQ/L
same,SODIUM,[6],148.67 MEQ/L
same,TOTAL PROTEIN,[6],5.7 G/DL
